Calls of active or inactive are those of the source.
Key:
Escherichia coli = experiment: microbe, parasite or virus in culture
[1] = target: Potassium channel subfamily K member 3 (Homo sapiens, UniProt O14649); experiment: TASK1 (KCNK3) potassium channel inhibitors, SAR follow-up, CHO cells, FluxOR thallium flux (AID 652212); format: functional
[2] = target: 1-phosphatidylinositol 4,5-bisphosphate phosphodiesterase beta-3 (Homo sapiens, UniProt Q01970); experiment: Fluorescence-based biochemical high throughput dose response assay to identify inhibitors of phospholipase C isozymes (PLC-B3).
1-phosphatidylinositol 4,5-bisphosphate phosphodiesterase beta-3, sequence (Q01970 whole entry): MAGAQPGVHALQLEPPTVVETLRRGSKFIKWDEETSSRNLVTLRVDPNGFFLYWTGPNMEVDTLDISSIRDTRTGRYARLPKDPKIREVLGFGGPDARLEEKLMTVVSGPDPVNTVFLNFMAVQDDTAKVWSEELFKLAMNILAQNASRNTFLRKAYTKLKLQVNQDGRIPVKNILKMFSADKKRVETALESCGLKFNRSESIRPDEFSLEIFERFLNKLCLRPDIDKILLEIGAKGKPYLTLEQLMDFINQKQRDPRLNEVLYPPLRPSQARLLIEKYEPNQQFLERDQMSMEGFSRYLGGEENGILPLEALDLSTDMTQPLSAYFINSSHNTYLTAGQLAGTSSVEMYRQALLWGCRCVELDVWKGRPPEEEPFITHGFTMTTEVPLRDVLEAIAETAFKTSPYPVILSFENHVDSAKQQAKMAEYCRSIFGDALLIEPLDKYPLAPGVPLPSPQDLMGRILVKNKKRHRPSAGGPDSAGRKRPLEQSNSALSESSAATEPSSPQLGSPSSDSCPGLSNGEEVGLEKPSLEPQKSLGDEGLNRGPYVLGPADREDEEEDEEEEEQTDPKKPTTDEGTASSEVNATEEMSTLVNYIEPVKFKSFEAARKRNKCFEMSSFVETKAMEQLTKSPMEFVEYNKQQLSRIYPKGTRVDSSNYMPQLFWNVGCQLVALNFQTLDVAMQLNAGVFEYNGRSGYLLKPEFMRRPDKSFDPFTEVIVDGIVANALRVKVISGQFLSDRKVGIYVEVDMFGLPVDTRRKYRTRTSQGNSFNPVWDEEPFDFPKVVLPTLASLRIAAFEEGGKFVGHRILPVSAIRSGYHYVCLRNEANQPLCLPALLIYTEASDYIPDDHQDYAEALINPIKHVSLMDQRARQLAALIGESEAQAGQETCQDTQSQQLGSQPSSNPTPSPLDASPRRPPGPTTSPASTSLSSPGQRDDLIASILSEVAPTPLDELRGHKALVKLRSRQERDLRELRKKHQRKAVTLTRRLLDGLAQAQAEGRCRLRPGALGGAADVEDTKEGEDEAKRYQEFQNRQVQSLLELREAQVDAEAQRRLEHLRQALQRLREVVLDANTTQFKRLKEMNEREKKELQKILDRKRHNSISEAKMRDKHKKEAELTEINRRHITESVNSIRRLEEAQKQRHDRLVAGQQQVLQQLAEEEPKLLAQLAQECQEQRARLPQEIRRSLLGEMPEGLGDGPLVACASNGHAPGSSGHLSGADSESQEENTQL

[3] = target: 1-phosphatidylinositol 4,5-bisphosphate phosphodiesterase gamma-1 (Homo sapiens, UniProt P19174); experiment: Counterscreen for inhibitors of phospholipase C isozymes (PLC-B3): Fluorescence-based biochemical high throughput dose response assay to identify inhibitors of phospholipase C isozymes (PLC-gamma1).
1-phosphatidylinositol 4,5-bisphosphate phosphodiesterase gamma-1, sequence (P19174 whole entry): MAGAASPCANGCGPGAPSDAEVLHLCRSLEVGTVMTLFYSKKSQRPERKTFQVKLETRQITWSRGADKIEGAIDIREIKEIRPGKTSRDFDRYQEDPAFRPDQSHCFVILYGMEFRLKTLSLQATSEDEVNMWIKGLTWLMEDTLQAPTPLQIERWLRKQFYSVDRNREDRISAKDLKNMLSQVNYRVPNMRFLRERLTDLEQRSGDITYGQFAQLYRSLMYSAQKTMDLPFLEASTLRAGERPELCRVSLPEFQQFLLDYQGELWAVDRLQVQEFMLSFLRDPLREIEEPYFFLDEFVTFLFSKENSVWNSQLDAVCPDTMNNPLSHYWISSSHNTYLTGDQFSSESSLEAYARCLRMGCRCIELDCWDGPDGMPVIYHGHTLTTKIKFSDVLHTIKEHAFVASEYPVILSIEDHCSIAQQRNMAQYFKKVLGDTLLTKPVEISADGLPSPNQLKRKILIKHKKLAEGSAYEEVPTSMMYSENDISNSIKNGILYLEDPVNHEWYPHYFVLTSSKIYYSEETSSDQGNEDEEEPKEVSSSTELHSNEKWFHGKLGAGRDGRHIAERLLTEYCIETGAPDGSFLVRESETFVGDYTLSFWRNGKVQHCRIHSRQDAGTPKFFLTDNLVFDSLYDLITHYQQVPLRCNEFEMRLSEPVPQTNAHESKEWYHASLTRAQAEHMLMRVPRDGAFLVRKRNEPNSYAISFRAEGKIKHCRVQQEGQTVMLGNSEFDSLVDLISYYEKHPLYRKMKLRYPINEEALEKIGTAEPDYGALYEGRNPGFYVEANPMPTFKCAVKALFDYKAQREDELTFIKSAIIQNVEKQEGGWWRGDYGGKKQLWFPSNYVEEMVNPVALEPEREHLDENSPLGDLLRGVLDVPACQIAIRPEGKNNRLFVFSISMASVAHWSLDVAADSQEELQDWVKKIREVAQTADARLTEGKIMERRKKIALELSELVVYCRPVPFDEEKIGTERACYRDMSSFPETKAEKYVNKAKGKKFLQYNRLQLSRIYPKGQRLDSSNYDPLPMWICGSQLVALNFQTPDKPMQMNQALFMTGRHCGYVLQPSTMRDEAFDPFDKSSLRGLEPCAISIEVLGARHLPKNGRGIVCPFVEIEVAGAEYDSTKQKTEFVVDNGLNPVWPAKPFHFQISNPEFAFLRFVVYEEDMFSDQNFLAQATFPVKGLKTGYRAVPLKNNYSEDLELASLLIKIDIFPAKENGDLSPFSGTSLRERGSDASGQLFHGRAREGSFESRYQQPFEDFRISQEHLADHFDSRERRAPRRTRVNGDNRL

[4] = HEK293 cell cytotoxicity, dose response, cytotoxicity control, plate reader, cherry-picked samples (AID 743446); format: functional, cell-based
[5] = control 3'UTR Renilla luciferase suppression, dose response, counter-screen for Shn3 inhibitor project, cell-based, Clone20-Shn3RL, cherry-picked (AID 624133); format: functional
[6] = MC4R antagonists, dose response, counter-screen for LGR2 antagonist project, cell-based, plate reader, cherry pick (AID 743444); format: functional;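 also: transfected HEK 293 cells stimulated with alpha-MSH peptide; potency of inhibitors of the alpha-MSH evoked signal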
[7] = LGR2 antagonists, dose response, cell-based, HEK293, CRE-luciferase reporter, cherry pick, set 2 (AID 743343); format: functional;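 also: transfected cells were stimulated with diluted bursicon conditioned medium after compound addition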
[8] = reduction of Shn3 3'UTR firefly luciferase signal, dose response, Schnurri-3 inhibitor project, cell-based, Clone20 osteoblasts, cherry-pick, set 2 (AID 720490); format: functional;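 also: actives lower the luminescence signal as inhibitors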
[9] = Shn3 3'UTR reporter inhibitors, dose response, cell-based, Clone20 osteoblasts, firefly luciferase, cherry-picked (AID 624132); format: functional;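 also: firefly luciferase luminescence from reporter carrying the Shn3 3'UTR in osteoblasts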
[10] = HepG2 cell cytotoxicity, dose response, cytotoxicity control, plate reader, cherry-pick, antagonist series (AID 743416); format: functional, cell-based
[11] = HepG2 cell cytotoxicity, dose response, cytotoxicity control for Shn3 inhibitor project, CellTiter-Glo, cherry-picked (AID 624134); format: functional, cell-based
Caspase-6 = Caspase-6 (Homo sapiens, UniProt P55212); experiment: human caspase-6 inhibitors, dose response, biochemical, VEID-R110 fluorescence, cherry-pick (AID 720632)
Caspase-6, sequence (P55212 24-179 limits assumed): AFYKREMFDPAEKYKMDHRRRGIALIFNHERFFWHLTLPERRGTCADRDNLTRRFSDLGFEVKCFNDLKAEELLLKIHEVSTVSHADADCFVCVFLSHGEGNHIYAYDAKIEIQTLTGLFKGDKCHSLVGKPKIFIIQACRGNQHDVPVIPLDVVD
Caspase-6, sequence (P55212 194-293 limits assumed): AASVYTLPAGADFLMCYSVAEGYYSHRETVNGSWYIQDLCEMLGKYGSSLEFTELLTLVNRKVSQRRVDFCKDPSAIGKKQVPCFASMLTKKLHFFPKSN

[12] = NIH:OVCAR-3 ovarian cancer cell cytotoxicity, dose response, PAX8 inhibitor project, plate reader, dry powder samples (AID 743044); format: functional, cell-based
[13] = IOSE-T80 ovarian epithelial cell cytotoxicity, dose response, cytotoxicity control for PAX8 inhibitor project, plate reader, dry powder samples (AID 743045); format: functional, cell-based
[14] = cytotoxicity in OVCAR8 ovarian cancer cells, dose response, PAX8 project, cell-based, plate reader, dry powder samples (AID 743197); format: functional; conditions: OVCAR-8
Paired box protein Pax-8 = Paired box protein Pax-8 (Homo sapiens, UniProt Q06710); experiment: inhibitors of PAX8-driven TPO luciferase reporter, dose response, RMG-I cells, cherry-pick (AID 687027); format: functional, cell-based;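 also: luciferase reporter driven by Pax8 target thyroperoxidase promoter measured by SteadyGlo luminescence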
Paired box protein Pax-8, sequence (Q06710 whole entry): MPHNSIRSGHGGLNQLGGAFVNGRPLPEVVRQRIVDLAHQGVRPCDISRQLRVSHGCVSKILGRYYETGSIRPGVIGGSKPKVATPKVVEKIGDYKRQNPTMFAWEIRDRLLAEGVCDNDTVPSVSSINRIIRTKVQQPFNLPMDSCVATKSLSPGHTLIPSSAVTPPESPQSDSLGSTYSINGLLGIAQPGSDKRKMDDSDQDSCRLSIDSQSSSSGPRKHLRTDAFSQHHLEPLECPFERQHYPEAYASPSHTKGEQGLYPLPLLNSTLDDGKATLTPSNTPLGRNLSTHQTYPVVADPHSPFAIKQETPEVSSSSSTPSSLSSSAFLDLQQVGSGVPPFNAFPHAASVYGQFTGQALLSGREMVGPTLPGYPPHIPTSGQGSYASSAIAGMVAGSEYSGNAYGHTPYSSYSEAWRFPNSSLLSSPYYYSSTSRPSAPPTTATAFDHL

Potassium channel subfamily K member 3, sequence (O14649 whole entry): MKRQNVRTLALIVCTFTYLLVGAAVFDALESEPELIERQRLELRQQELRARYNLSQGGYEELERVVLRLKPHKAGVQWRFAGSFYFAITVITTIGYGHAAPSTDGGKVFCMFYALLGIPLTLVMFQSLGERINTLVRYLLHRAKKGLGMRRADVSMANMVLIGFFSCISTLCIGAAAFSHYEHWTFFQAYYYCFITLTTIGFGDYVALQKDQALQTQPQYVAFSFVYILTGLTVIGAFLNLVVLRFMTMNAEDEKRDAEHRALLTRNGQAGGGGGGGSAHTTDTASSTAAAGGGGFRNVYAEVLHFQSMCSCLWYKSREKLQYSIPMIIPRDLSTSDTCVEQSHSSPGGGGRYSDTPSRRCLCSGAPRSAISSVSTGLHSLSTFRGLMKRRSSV

O=C(Nc1cccc(NC(=O)c2ccco2)c1)c1ccccc1
AC50 (Escherichia coli): 25 µM (active)
IC50 [1]: 0.036 µM (active)

CC(C)c1ccccc1NC(=O)Nc1ccc2c(c1)OCO2
IC50 [2]: > 123 µM (inactive)
IC50 [3]: > 123 µM (inactive)

COc1cc(NC(=O)c2cccc3c(-c4cccnc4)coc23)cc(OC)c1OC
AC50 [4]: 28.6 µM (active)
AC50 [5]: 11.5 µM (active)
AC50 [6]: 11.2 µM (active)
AC50 [7]: 11.2 µM (active)
AC50 [8]: 5.23 µM (active)
AC50 [9]: 0.978 µM (active)
AC50 [10]: > 52 µM (inactive)
AC50 [11]: 57.5 µM (active)

NNC(=O)CNC(=O)Nc1nnc(S)s1
AC50 (Caspase-6): 6.63 µM (active)

C[C@@H]1CCCCO[C@H](CN(C)Cc2ccc(C(=O)Nc3ccccc3N)cc2)[C@@H](C)CN([C@@H](C)CO)C(=O)c2cc(NS(=O)(=O)c3ccc(Cl)cc3)ccc2O1
AC50 [12]: 7.38 µM (active)
AC50 [13]: 46.9 µM (active)
AC50 [14]: 41.6 µM (active)
AC50 (Paired box protein Pax-8): 11.7 µM (active)

COc1ccc(S(=O)(=O)Nc2ccc3c(c2)C(=O)N([C@@H](C)CO)C[C@@H](C)[C@@H](CN(C)Cc2ccc(C(F)(F)F)cc2)OCCCC[C@@H](C)O3)cc1
AC50 [12]: 23.1 µM (active)
AC50 [13]: 24 µM (active)
AC50 [14]: 22.5 µM (active)
AC50 (Paired box protein Pax-8): 6.1 µM (active)
